In patent US20210346357A1 (priority 2020, published 2021):

What was measured:
[1] = target: Abl1 (Homo sapiens, UniProt P00519); experiment: Biochemical ABL1 kinase assay (33P-ATP); details: at 1 μM; ATP 10 μM
[2] = Pharmacokinetics in plasma and lung in mouse; type: in vivo; details: single oral aspiration 0.2 mg/mL 50 μL
Method: Assay 5: Pharmacokinetics in Plasma and Lung in Mouse
Plasma and lung concentrations of test compounds and ratios thereof were determined in the following manner. BALB/c mice from Charles River Laboratories were used in the assay. Test compounds were individually formulated in 20% propylene glycol in pH 4 citrate buffer at a concentration of 0.2 mg/mL and 50 μL of the dosing solution was introduced into the trachea of a mouse by oral aspiration. At various time points (typically 0.167, 2, 6, 24 hr) post dosing, blood samples were removed via cardiac puncture and intact lungs were excised from the mice. Blood samples were centrifuged (Eppendorf centrifuge, 5804R) for 4 minutes at approximately 12,000 rpm at 4° C. to collect plasma. […] Plasma and lung concentrations of test compound were determined by LC-MS analysis against analytical standards constructed into a standard curve in the test matrix. A lung-to-plasma ratio was determined as the ratio of the lung AUC in μg hr/g to the plasma AUC in μg hr/mL, where AUC is conventionally defined as the area under the curve of test compound concentration vs. time.

[3] = test system: Symptomatic Acute Lung Injury Associated with COVID-19; experiment: Phase 2 study Part 1, inhaled compound 1 in hospitalized COVID-19 patients; details: COVID-19 patients; for Modified Borg Dyspnea Score, Baseline, Mean: baseline value
[4] = 1 mg, matched D1 and D7 samples

Abl1, sequence (P00519 whole entry): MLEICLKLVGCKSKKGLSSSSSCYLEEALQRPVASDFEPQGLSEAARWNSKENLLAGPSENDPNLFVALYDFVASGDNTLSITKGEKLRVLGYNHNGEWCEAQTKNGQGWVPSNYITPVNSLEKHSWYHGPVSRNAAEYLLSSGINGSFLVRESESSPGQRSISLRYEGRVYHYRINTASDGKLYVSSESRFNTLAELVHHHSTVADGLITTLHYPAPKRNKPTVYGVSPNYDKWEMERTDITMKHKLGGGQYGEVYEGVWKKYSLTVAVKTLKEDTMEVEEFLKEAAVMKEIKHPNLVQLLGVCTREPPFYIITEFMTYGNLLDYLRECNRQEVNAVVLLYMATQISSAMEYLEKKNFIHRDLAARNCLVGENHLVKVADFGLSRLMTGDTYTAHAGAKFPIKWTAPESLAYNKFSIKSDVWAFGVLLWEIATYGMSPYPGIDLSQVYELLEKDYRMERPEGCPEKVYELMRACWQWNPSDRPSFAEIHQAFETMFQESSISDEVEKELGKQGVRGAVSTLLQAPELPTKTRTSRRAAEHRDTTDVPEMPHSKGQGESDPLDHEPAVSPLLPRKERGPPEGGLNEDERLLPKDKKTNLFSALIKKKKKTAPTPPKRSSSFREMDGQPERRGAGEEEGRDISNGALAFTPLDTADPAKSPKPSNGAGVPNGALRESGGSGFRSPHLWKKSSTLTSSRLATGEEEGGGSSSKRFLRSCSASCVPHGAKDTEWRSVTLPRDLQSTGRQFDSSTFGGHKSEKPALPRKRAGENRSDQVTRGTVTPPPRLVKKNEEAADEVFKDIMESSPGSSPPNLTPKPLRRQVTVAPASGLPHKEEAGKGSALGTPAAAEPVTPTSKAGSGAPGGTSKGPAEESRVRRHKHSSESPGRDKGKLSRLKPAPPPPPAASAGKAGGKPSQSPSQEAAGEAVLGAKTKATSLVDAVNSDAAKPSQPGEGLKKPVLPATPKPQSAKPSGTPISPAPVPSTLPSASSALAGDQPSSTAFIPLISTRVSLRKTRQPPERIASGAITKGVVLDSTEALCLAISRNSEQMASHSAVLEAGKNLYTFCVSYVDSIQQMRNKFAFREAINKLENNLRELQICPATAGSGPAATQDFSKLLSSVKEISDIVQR

For `CCc1cc(O)ccc1-c1ccc2c(-c3nc4c([nH]3)CN(C(C)C)[C@H](C(=O)N3CC(N(C)C)C3)C4)n[nH]c2c1` [Compound 1, (S)-(3-(dimethylamino)azetidin-1-yl)(2-(6-(2-ethyl-4-hydroxyphenyl)-1H-indazol-3-yl)-5-isopropyl-4,5,6,7-tetrahydro-3H-imidazo[4,5-c]pyridin-6-yl)methanone], the inhibition at 1 µM [1] was 90%, the “Lung Tissue AUC(0-24)” value [2] was 54.5 µg·h/g and the “Plasma AUC(0-24)” value [2] was 0.943 µg·h/mL. The “exposures provided by the loading dose on Day 1” value [3] was “consistent with pseudo steady-state”, the “Clinical Status at Day 28: 1-Not hospitalized, no limitations on activities, number” value ([3]; 1 mg) was 5 and the “Clinical Status at Day 28: 1-Not hospitalized, no limitations on activities, percent” value ([3]; 1 mg) was 83.3%. For the same compound, the “Clinical Status at Day 28: 2-Not hospitalized, but with limitations on activities and/or requiring home oxygen, number” value ([3]; 1 mg) was 0, the “Clinical Status at Day 28: 3-Hospitalized, not requiring supplemental oxygen, and no longer requiring ongoing medical care, number” value ([3]; 1 mg) was 0 and the “Clinical Status at Day 28: 4-Hospitalized, not requiring supplemental oxygen, but requiring ongoing medical care, number” value ([3]; 1 mg) was 0. For the same compound, the “Clinical Status at Day 28: 5-Hospitalized, requiring supplemental oxygen, number” value ([3]; 1 mg) was 0, the “Clinical Status at Day 28: 6-Hospitalized, on non-invasive ventilation or high-flow oxygen devices, number” value ([3]; 1 mg) was 0 and the “Clinical Status at Day 28: 7-Hospitalized, on invasive mechanical ventilation or extracorporeal membrane oxygenation, number” value ([3]; 1 mg) was 0. For the same compound, the “Clinical Status at Day 28: 8-Death, number” value ([3]; 1 mg) was 1, the “Clinical Status at Day 28: 8-Death, percent” value ([3]; 1 mg) was 16.7% and the “Still in Hospital at Day 28, number” value ([3]; 1 mg) was 0. For the same compound, the “Time to Hospital Discharge (Days) Median” value ([3]; 1 mg) was 18.5 days, the “Modified Borg Dyspnea Score, Baseline, Mean” value ([3]; 1 mg group) was 6.17 and the “Modified Borg Dyspnea Score Change from Baseline, Mean” value (“Modified Borg Dyspnea Score Change” for short) ([3]; 1 mg, Day 2) was 0.33. The “Modified Borg Dyspnea Score Change” value ([3]; 1 mg, Day 3) was −0.33, the “Modified Borg Dyspnea Score Change” value ([3]; 1 mg, Day 4) was −0.83 and the “Modified Borg Dyspnea Score Change” value ([3]; 1 mg, Day 5) was −1.17. The “Modified Borg Dyspnea Score Change” value ([3]; 1 mg, Day 6) was −1.33, the “Hospital Discharge, number” value ([3]; 1 mg, Day 7) was 0 and the “Modified Borg Dyspnea Score Change” value ([3]; 1 mg, Day 7) was −1.50. The “Hospital Discharge, number” value ([3]; 1 mg, Day 14) was 2, the “Hospital Discharge, percent” value ([3]; 1 mg, Day 14) was 33.3% and the “Hospital Discharge, number” value ([3]; 1 mg, Day 21) was 3. For the same compound, the “Hospital Discharge, percent” value ([3]; 1 mg, Day 21) was 50.0%, the “# Subjects Respiratory Failure-Free, percent” value ([3]; 1 mg, Day 28) was 83.3% and the “Hospital Discharge, number” value ([3]; 1 mg, Day 28) was 5. For the same compound, the “Hospital Discharge, percent” value ([3]; 1 mg, Day 28) was 83.3%, the “Proportion of Subjects Alive and Respiratory Failure-free” value ([3]; 1 mg, Day 28) was 83.3% and the “Proportion of Subjects Alive and Respiratory Failure-free, number” value ([3]; 1 mg, Day 28) was 5. For the same compound, the “# Subjects Respiratory Failure-Free” value ([3]; 1 mg, Day 28, number of subjects) was 5, the “IFN-γ, within-group percent difference in geometric mean from baseline” value [3, 4] was −46.12% and the “IL-6, within-group percent difference in geometric mean from baseline” value [3, 4] was 29.45%. The “IL-8, within-group percent difference in geometric mean from baseline” value [3, 4] was −16.78%, the “IL-10, within-group percent difference in geometric mean from baseline” value [3, 4] was −26.59% and the “IP-10, within-group percent difference in geometric mean from baseline” value [3, 4] was −20.65%. For the same compound, the “MCP-1, within-group percent difference in geometric mean from baseline” value [3, 4] was 13.90%, the “MDC, within-group percent difference in geometric mean from baseline” value [3, 4] was −55.03% and the “RAGE, within-group percent difference in geometric mean from baseline” value [3, 4] was −14.22%. The “TARC, within-group percent difference in geometric mean from baseline” value [3, 4] was −57.21%, the “hsCRP, within-group percent difference in geometric mean from baseline” value [3, 4] was −34.85% and the “Time to Hospital Discharge (Days) Mean ± SD” value ([3]; 1 mg, still hospitalized or died = 28 days) was 18.83 ± 6.795 days. The “# Subjects Alive, percent” value ([3]; 1 mg, through Day 28) was 83.3%, the “Died (All-Cause Mortality), percent” value ([3]; 1 mg, through Day 28) was 16.7% and the “# Subjects Alive” value ([3]; 1 mg, through Day 28, number of subjects) was 5. The “Clinical Status at Day 28: 1-Not hospitalized, no limitations on activities, number” value ([3]; 3 mg) was 5, the “Clinical Status at Day 28: 1-Not hospitalized, no limitations on activities, percent” value ([3]; 3 mg) was 83.3% and the “Clinical Status at Day 28: 2-Not hospitalized, but with limitations on activities and/or requiring home oxygen, number” value ([3]; 3 mg) was 0. For the same compound, the “Clinical Status at Day 28: 3-Hospitalized, not requiring supplemental oxygen, and no longer requiring ongoing medical care, number” value ([3]; 3 mg) was 0, the “Clinical Status at Day 28: 4-Hospitalized, not requiring supplemental oxygen, but requiring ongoing medical care, number” value ([3]; 3 mg) was 1 and the “Clinical Status at Day 28: 4-Hospitalized, not requiring supplemental oxygen, but requiring ongoing medical care, percent” value ([3]; 3 mg) was 16.7%. For the same compound, the “Clinical Status at Day 28: 5-Hospitalized, requiring supplemental oxygen, number” value ([3]; 3 mg) was 0, the “Clinical Status at Day 28: 6-Hospitalized, on non-invasive ventilation or high-flow oxygen devices, number” value ([3]; 3 mg) was 0 and the “Clinical Status at Day 28: 7-Hospitalized, on invasive mechanical ventilation or extracorporeal membrane oxygenation, number” value ([3]; 3 mg) was 0. For the same compound, the “Clinical Status at Day 28: 8-Death, number” value ([3]; 3 mg) was 0, the “Still in Hospital at Day 28, number” value ([3]; 3 mg) was 0 and the “Time to Hospital Discharge (Days) Median” value ([3]; 3 mg) was 17.0 days. The “Modified Borg Dyspnea Score, Baseline, Mean” value ([3]; 3 mg group) was 6.71, the “Modified Borg Dyspnea Score Change” value ([3]; 3 mg, Day 2) was −0.43 and the “Modified Borg Dyspnea Score Change” value ([3]; 3 mg, Day 3) was −1.00. The “Modified Borg Dyspnea Score Change” value ([3]; 3 mg, Day 4) was −0.50, the “Modified Borg Dyspnea Score Change” value ([3]; 3 mg, Day 5) was −1.20 and the “Modified Borg Dyspnea Score Change” value ([3]; 3 mg, Day 6) was −1.20. The “Hospital Discharge, number” value ([3]; 3 mg, Day 7) was 1, the “Hospital Discharge, percent” value ([3]; 3 mg, Day 7) was 14.3% and the “Modified Borg Dyspnea Score Change” value ([3]; 3 mg, Day 7) was −1.80. The “Hospital Discharge, number” value ([3]; 3 mg, Day 14) was 2, the “Hospital Discharge, percent” value ([3]; 3 mg, Day 14) was 28.6% and the “Hospital Discharge, number” value ([3]; 3 mg, Day 21) was 6.
